This passage reports IC50 results from US8063065B2, “Azaindazole compounds as CCR1 receptor antagonists” (Boehringer Ingelheim International GmbH, priority 2008, dated 2011).

For orientation: IC50 means the midpoint of a concentration-inhibition curve.

The assay deals with T1, CCR1 (Homo sapiens, UniProt P32246).
T1 sequence (P32246 1-355): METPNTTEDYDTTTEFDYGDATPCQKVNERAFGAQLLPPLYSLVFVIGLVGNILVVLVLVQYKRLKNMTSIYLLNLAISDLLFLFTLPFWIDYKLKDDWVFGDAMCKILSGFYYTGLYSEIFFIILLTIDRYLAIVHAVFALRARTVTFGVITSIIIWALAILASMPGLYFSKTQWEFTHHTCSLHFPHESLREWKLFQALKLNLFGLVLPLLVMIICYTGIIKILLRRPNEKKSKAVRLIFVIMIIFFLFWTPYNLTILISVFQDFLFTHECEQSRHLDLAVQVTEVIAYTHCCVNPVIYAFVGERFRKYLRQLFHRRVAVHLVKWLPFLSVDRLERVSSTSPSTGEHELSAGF
Kind of assay: Method A: calcium flux in CCR1 transfected cells (Fluo-4 NW, FLIPR TETRA), block of the CCR1/MIP-1α interaction. The format is cell-based. The conditions noted are these: Method A: Fluo-4 NW, MIP-1 alpha at EC80. The method, then:
Compounds are assessed for the ability to block the interaction of CCR1 and MIP-1α in a functional cellular assay measuring calcium flux in CCR1 transfected cells.
Method A: Non-adherent cells purchased from Chemicon Corporation (HTS005C), stably expressing recombinant CCR1 and G-alpha-16 are grown in RPMI 1640 medium (Mediatech 10-080-CM) supplemented with 10% heat-inactivated FBS, 0.4 mg/mL Geneticin and penicillin/streptomycin. On the day of the assay, the cells are transferred to a beaker and dye-loaded in bulk using a Fluo-4 NW Calcium Assay Kit with probenecid (Invitrogen F36205) at 0.8E6 cells/mL for 1 hour at room temperature. After 1 hour, they are seeded in a 384-well tissue culture-treated plate at a density of 20,000 cells/well. Appropriately diluted test compound is added to the well to achieve a top concentration of 3,000 nM (diluted 4-fold with 10 doses total). The final concentration of DMSO is 1%. The buffer is HBSS (Invitrogen 14025) with 20 mM HEPES at pH 7.4. The cells are allowed to incubate 1 hour in the dark at room temperature. The plates are transferred to the FLIPR TETRA where MIP-1 alpha in 1% BSA is added at the EC80 final concentration. Wells+/−MIP-1 alpha containing diluted DMSO instead of compound serve as the controls. Intracellular calcium flux is recorded on the FLIPR TETRA, using excitation at 470/495 nm and emission at 515/575 nm. Data are analyzed using Activity Base software.
(In general: Calcium flux is commonly read through the fluorescence of an indicator in the cells.)

In the case of `O=C(NCc1ccc(S(=O)(=O)N2CCOCC2)nc1)c1cncc2c1cnn2-c1ccc(F)cc1` [1-(4-Fluorophenyl)-1H-pyrazolo[3,4-c]pyridine-4-carboxylic acid [6-(morpholine-4-sulfonyl)-pyridin-3-ylmethyl]-amide], the IC50 worked out at 18 nM.

As to `CN(CCO)S(=O)(=O)c1ccc(CNC(=O)c2cncc3c2cnn3-c2ccc(F)cc2)cc1` [1-(4-Fluorophenyl)-1H-pyrazolo[3,4-c]pyridine-4-carboxylic acid 4-[(2-hydroxy-ethyl)-methyl-sulfamoyl]-benzylamide], the IC50 was 1 nM.

Turning to `CCC[C@H](NC(=O)c1cncc2c1cnn2-c1ccc(F)cc1)c1cncc(S(=O)(=O)CCC(=O)OC)c1` [3-[5-((S)-1-{[1-(4-Fluorophenyl)-1H-pyrazolo[3,4-c]pyridine-4-carbonyl]-amino}-butyl)-pyridine-3-sulfonyl]-propionic acid methyl ester], the IC50 came out at 2 nM.

`CS(=O)(=O)c1ccc(CNC(=O)c2cncc3c2cnn3-c2ccc(Cl)cc2)cn1` [1-(4-Chlorophenyl)-1H-pyrazolo[3,4-c]pyridine-4-carboxylic acid (6-methanesulfonyl-pyridin-3-ylmethyl)-amide]: the IC50 came to 34 nM.

With `CCC[C@H](NC(=O)c1cncc2c1cnn2-c1ccc(F)cc1)c1cncc(S(C)(=O)=O)c1` [1-(4-Fluorophenyl)-1H-pyrazolo[3,4-c]pyridine-4-carboxylic acid [(S)-1-(5-methanesulfonyl-pyridin-3-yl)-butyl]-amide], the IC50 worked out at 0.3 nM.

Take `CNS(=O)(=O)c1cc(CNC(=O)c2cncc3c2cnn3-c2ccc(F)cc2)ccc1OC` [1-(4-Fluorophenyl)-1H-pyrazolo[3,4-c]pyridine-4-carboxylic acid 4-methoxy-3-methylsulfamoyl-benzylamide]: the IC50 stood at 12 nM.

Consider `O=C(NCc1ccc(CS(=O)(=O)N2CCOCC2)cc1)c1cncc2c1cnn2-c1ccc(F)cc1` [1-(4-Fluorophenyl)-1H-pyrazolo[3,4-c]pyridine-4-carboxylic acid 4-(morpholine-4-sulfonylmethyl)-benzylamide], for which the IC50 came to 20 nM.

For the compound `O=C(NCc1cccc(C(F)(F)F)c1)c1c[n+]([O-])cc2c1cnn2-c1ccc(F)cc1` [1-(4-Fluorophenyl)-6-oxy-1H-pyrazolo[3,4-c]pyridine-4-carboxylic acid 3-trifluoromethyl-benzylamide], the IC50 worked out at 6 nM.

Consider `CC[C@H](NC(=O)c1cncc2c1cnn2-c1ccc(Cl)cc1)c1cncc(Br)c1` [1-(4-Chlorophenyl)-1H-pyrazolo[3,4-c]pyridine-4-carboxylic acid [(S)-1-(5-bromopyridin-3-yl)-propyl]-amide], for which the IC50 is 0.6 nM.

In the case of `O=C(NCc1cc(C(F)(F)F)cc(C(F)(F)F)c1)c1cncc2c1cnn2-c1ccc(F)cc1` [1-(4-Fluorophenyl)-1H-pyrazolo[3,4-c]pyridine-4-carboxylic acid 3,5-bis-trifluoromethyl-benzylamide], the IC50 amounted to 3 nM.

Turning to `CN1CCC(N(C)S(=O)(=O)c2ccc(CNC(=O)c3cncc4c3cnn4-c3ccc(F)cc3)cc2)CC1` [1-(4-Fluorophenyl)-1H-pyrazolo[3,4-c]pyridine-4-carboxylic acid 4-[methyl-(1-methyl-piperidin-4-yl)-sulfamoyl]-benzylamide], the IC50 worked out at 5 nM.

`NC1CCN(S(=O)(=O)c2ccc(CNC(=O)c3cncc4c3cnn4-c3ccc(F)cc3)cc2)CC1` [1-(4-Fluorophenyl)-1H-pyrazolo[3,4-c]pyridine-4-carboxylic acid 4-(4-amino-piperidine-1-sulfonyl)-benzylamide]: the IC50 came to 0.3 nM.

On to `COCCNS(=O)(=O)c1ccc(CNC(=O)c2cncc3c2cnn3-c2ccc(F)cc2)cn1` [1-(4-Fluorophenyl)-1H-pyrazolo[3,4-c]pyridine-4-carboxylic acid [6-(2-methoxy-ethylsulfamoyl)-pyridin-3-ylmethyl]-amide], for which the IC50 amounted to 9 nM.

In the case of `CCCC(NC(=O)c1cncc2c1cnn2-c1ccc(F)cc1)c1ccnc(S(=O)(=O)CC)c1` (centres unmarked) [1-(4-Fluorophenyl)-1H-pyrazolo[3,4-c]pyridine-4-carboxylic acid [1-(2-ethanesulfonyl-pyridin-4-yl)-butyl]-amide], the IC50 came to 0.8 nM.

On to `NS(=O)(=O)c1cc(CNC(=O)c2cncc3c2cnn3-c2ccc(F)cc2)ccn1` [1-(4-Fluorophenyl)-1H-pyrazolo[3,4-c]pyridine-4-carboxylic acid (2-sulfamoyl-pyridin-4-ylmethyl)-amide], for which the IC50 turned out to be 13 nM.

For the compound `CN(C)S(=O)(=O)c1ccc(CNC(=O)c2cncc3c2cnn3-c2ccc(F)cc2)cn1` [1-(4-Fluorophenyl)-1H-pyrazolo[3,4-c]pyridine-4-carboxylic acid (6-dimethylsulfamoyl-pyridin-3-ylmethyl)-amide], the half-maximal inhibitory concentration (IC50) is 1 nM.

For the compound `CCCC(NC(=O)c1cncc2c1cnn2-c1ccc(Cl)cc1)c1ccnc(Br)c1` (centres unmarked) [1-(4-Chlorophenyl)-1H-pyrazolo[3,4-c]pyridine-4-carboxylic acid [1-(2-bromopyridin-4-yl)-butyl]-amide], the IC50 is 2 nM.

Regarding `CNS(=O)(=O)c1ccc(CNC(=O)c2cncc3c2cnn3-c2ccc(F)cc2)cc1OC` [1-(4-Fluorophenyl)-1H-pyrazolo[3,4-c]pyridine-4-carboxylic acid 3-methoxy-4-methylsulfamoyl-benzylamide], the IC50 worked out at 3 nM.

Turning to `CCCC(NC(=O)c1cncc2c1cnn2-c1ccc(F)cc1)c1ccnc(Br)c1` (centres unmarked) [1-(4-Fluorophenyl)-1H-pyrazolo[3,4-c]pyridine-4-carboxylic acid [1-(2-bromopyridin-4-yl)-butyl]-amide], the half-maximal inhibitory concentration (IC50) is 0.4 nM.

Take `CN(C)S(=O)(=O)N(C)c1ccc(CNC(=O)c2cncc3c2cnn3-c2ccc(F)cc2)cn1` [1-(4-Fluorophenyl)-1H-pyrazolo[3,4-c]pyridine-4-carboxylic acid [6-(dimethylamino-sulfonylmethylamino)-pyridin-3-ylmethyl]-amide]: the IC50 is 1 nM.

As to `CCCC(NC(=O)c1cncc2c1cnn2-c1ccc(Cl)cc1)c1ccnc(S(C)(=O)=O)c1` (centres unmarked) [1-(4-Chlorophenyl)-1H-pyrazolo[3,4-c]pyridine-4-carboxylic acid [1-(2-methanesulfonyl-pyridin-4-yl)-butyl]-amide], the IC50 is 0.4 nM.

Regarding `CCC[C@H](NC(=O)c1cncc2c1cnn2-c1ccc(F)cc1)c1cncc(S(=O)(=O)NC)c1` [1-(4-Fluorophenyl)-1H-pyrazolo[3,4-c]pyridine-4-carboxylic acid [(S)-1-(5-methylsulfamoyl-pyridin-3-yl)-butyl]-amide], the IC50 was 0.2 nM.

In the case of `CCC[C@H](NC(=O)c1cncc2c1cnn2-c1ccc(F)cc1)c1cncc(S(=O)(=O)CCC(=O)O)c1` [3-[5-((S)-1-{[1-(4-Fluorophenyl)-1H-pyrazolo[3,4-c]pyridine-4-carbonyl]-amino}-butyl)-pyridine-3-sulfonyl]-propionic acid], the IC50 turned out to be 17 nM.

Take `CC(NC(=O)c1cncc2c1cnn2-c1ccc(F)cc1)c1ccnc(Br)c1` (centres unmarked) [1-(4-Fluorophenyl)-1H-pyrazolo[3,4-c]pyridine-4-carboxylic acid [1-(2-bromopyridin-4-yl)-ethyl]-amide]: the IC50 came to 1 nM.

Consider `CN(C1CCNCC1)S(=O)(=O)c1ccc(CNC(=O)c2cncc3c2cnn3-c2ccc(F)cc2)cc1` [1-(4-Fluorophenyl)-1H-pyrazolo[3,4-c]pyridine-4-carboxylic acid 4-(methyl-piperidin-4-yl-sulfamoyl)-benzylamide], for which the IC50 came out at 2 nM.

Take `CN1CCN(S(=O)(=O)Cc2ccc(CNC(=O)c3cncc4c3cnn4-c3ccc(F)cc3)cc2)CC1` [1-(4-Fluorophenyl)-1H-pyrazolo[3,4-c]pyridine-4-carboxylic acid 4-(4-methyl-piperazine-1-sulfonylmethyl)-benzylamide]: the IC50 worked out at 39 nM.

As for `C[C@H](NC(=O)c1cncc2c1cnn2-c1ccc(F)cc1)c1cncc(S(C)(=O)=O)c1` [1-(4-Fluorophenyl)-1H-pyrazolo[3,4-c]pyridine-4-carboxylic acid [(S)-1-(5-methanesulfonyl-pyridin-3-yl)-ethyl]-amide], the IC50 amounted to 3 nM.

In the case of `CC[C@H](NC(=O)c1cncc2c1cnn2-c1ccc(F)cc1)c1cncc(Br)c1` [1-(4-Fluorophenyl)-1H-pyrazolo[3,4-c]pyridine-4-carboxylic acid [(S)-1-(5-bromopyridin-3-yl)-propyl]-amide], the IC50 turned out to be 0.2 nM.

As for `CN(C1CCOCC1)S(=O)(=O)c1ccc(CNC(=O)c2cncc3c2cnn3-c2ccc(F)cc2)cc1` [1-(4-Fluorophenyl)-1H-pyrazolo[3,4-c]pyridine-4-carboxylic acid 4-[methyl-(tetrahydropyran-4-yl)-sulfamoyl]-benzylamide], the IC50 worked out at 2 nM.
